# Results published in patent US6683079B2, “3-(amino-or aminoalkyl) pyridinone derivatives and their use for the treatment of HIV related diseases” (Centre National de la Recherche Scientifique, priority 1998, dated 2004).
# Experiments:
# HIV-1 strain IIIB = assay: Retrovirucidal effect on HIV-1 strain IIIB (Table 3); type: cell-based; conditions: pIC50=-log IC50, IC50 in M
# Method: (§1) HIV-1 viral suspensions were obtained by coculture of MT4 cells and H9 cells chronically infected by HIV-ILai isolate. 200 μl of a cell supernatant containing viral particles (HIV-ILai: 100 TCID50) were incubated at room temperature with various concentrations of different inhibitors. After 3 hours, virions were washed through 0.02 μm anopore membrane in 1.5 mL Vectaspin tube (Whatman) for 10 minutes at 5 000 g. Each of the three subsequent washes was performed in the same conditions after the viral concentrate was refilled with 500 μL of RPMI medium. Then, the viral concentrate was readjusted to the initial volume with RPMI plus 10% foetal calf serum (FCS). The residual infectivity was assayed on P4 cells as described by CHARNEAU et al. (1994, J. Mol. Biol., 241, 651-662). Briefly, P4 cells were plated using 100 μL of DMEM medium plus 10% FCS in 96 plate multi-wells at 20×10^5 cells per mL. After overnight incubation at 37° C., the supernatant was discarded and the viral preparation (200 μL) was added. One day later the wells were washed three times in PBS. Each well was refilled with 200 μL of a reaction buffer containing 50 mM Tris-HCl pH 8.5, 100 mM 2-mercaptoethanol, 0.05% Triton X-100 and 5 mM 4-methylumbelliferyl β-D-galactopyranoside (MUG). After 3 hours at 37° C., the level of the reaction was measured in a fluorescence microplate reader.
# (§2) The retrovirucidal effect of each pyridinone derivative listed in table 3 has been assayed according to the teachings of example 2, excepted that the anti-viral effect has been tested on the two following HIV-1 strains:
# a) HIV-1 strain IIIB (see example 2);
# HIV-1 strain 103 N = assay: Retrovirucidal effect on HIV-1 strain 103 N (Table 3); type: cell-based; conditions: HIV-1 strain 103N (RT Lys-103 to Asn mutant); pIC50=-log IC50, IC50 in M
# Method: as §1, §2
# b) HIV-1 strain 103 N which is a mutant strain bearing a point mutation in the reverse transcriptase gene leading to an enzyme wherein the initial Lys-103 residue is replaced for a Asn residue.
# The HIV-1 103 N strain has also been described by SAHLBERG et al.,(1998, Antiviral Res., 37 (3): ASS) and BALZARiNI et al. (1996, Antimicrobial Agents and Chemotherapy, 40 (6): 1454-1466).
SMILES,HIV1 pIC50 strain IIIB (HIV-1 strain IIIB),HIV1 pIC50 strain 103N (HIV-1 strain 103 N)
CCc1c(C)[nH]c(=O)c(N)c1Cc1cccc(C)c1 [Compound 9],5.373,5.103
CCc1c(C)[nH]c(=O)c(N(C)C)c1Cc1ccc2ccccc2c1 [Compound 10],6.241,4.389
CCc1c(Cc2cc(C)cc(C)c2)c(N(C)C)c(=O)n(C)c1C [Compound 11],7.215,6.094
CCc1c(C)[nH]c(=O)c(N(CC)CC)c1Cc1cc(C)cc(C)c1 [Compound 12],8.022,6.363
CCc1c(C)[nH]c(=O)c(N(C)C)c1Cc1cccc(C)c1 [Compound 13],8.824,7.622
CCc1c(C)[nH]c(=O)c(N(C)C)c1Cc1ccccc1C [Compound 14],7.676,5.849
Cc1cc(C)cc(Cc2cc[nH]c(=O)c2N)c1 [Compound 15],<4.17,4.138
Cc1cc(C)cc(Cc2cc[nH]c(=O)c2N(C)C)c1 [Compound 16],5.061,4.401
CCCN(CCC)c1c(Cc2cc(C)cc(C)c2)c(CC)c(C)[nH]c1=O [Compound 17],6.285,4.379
CCc1c(C)[nH]c(=O)c(N(C)C)c1Cc1ccc(C)cc1 [Compound 18],6.454,4.895
CCc1c(C)[nH]c(=O)c(N(C)C)c1Cc1ccc(C)c(C)c1 [Compound 19],7.447,5.947
CCc1c(C)[nH]c(=O)c(N(C)C)c1Cc1cccc(C)c1C [Compound 20],6.926,5.585
CCc1c(C)[nH]c(=O)c(N(C)C)c1Cc1ccccc1 [Compound 21],8.409,6.65
CCc1c(Cc2cc(C)cc(C)c2)c(N(C)C)c(=O)n(Cc2ccccc2)c1C [Compound 22],4.603,<4
CCOC(=O)Cn1c(C)c(CC)c(Cc2cc(C)cc(C)c2)c(N(C)C)c1=O [Compound 23],5.254,<4
CCCCN(CCCC)c1c(Cc2cc(C)cc(C)c2)c(CC)c(C)[nH]c1=O [Compound 24],4.262,<4
CCc1c(C)[nH]c(=O)c(N(Cc2ccccc2)Cc2ccccc2)c1Cc1cc(C)cc(C)c1 [Compound 25],<4,4.259
CCc1[nH]c(=O)c(N)c(Cc2cc(C)cc(C)c2)c1C [Compound 27],5.949,5.098
CCc1[nH]c(=O)c(N(C)C)c(Cc2cc(C)cc(C)c2)c1C [Compound 28],8.032,6.943

SMILES,HIV1 pIC50 strain IIIB (HIV-1 strain IIIB),HIV1 pIC50 strain 103N (HIV-1 strain 103 N)
CCc1c(C)[nH]c(=O)c(NCc2ccccc2)c1Cc1cc(C)cc(C)c1 [Compound 29],6.555,5.496
CCc1c(C)[nH]c(=O)c(N2CCCCC2)c1Cc1cc(C)cc(C)c1 [Compound 30],6.214,4.224
CCc1c(C)[nH]c(=O)c(N)c1Cc1ccc(C)cc1C [Compound 31],<4,<4
Cc1cc(C)cc(Cc2c(C)c(C)[nH]c(=O)c2N)c1 [Compound 32],6.104,<5
Cc1cc(C)cc(Cc2c(C)c(C)[nH]c(=O)c2N(C)C)c1 [Compound 33],8.42,6.286
CCc1c(C)[nH]c(=O)c(N(C)C)c1Cc1ccc(C)cc1C [Compound 34],5.019,<4
CCc1c(C)[nH]c(=O)c(N(C)C)c1C(=O)c1cc(C)cc(C)c1 [Compound 35],8.585,7.987
CCc1c(C)[nH]c(=O)c(N2CCOCC2)c1Cc1cc(C)cc(C)c1 [Compound 36],6.763,<4
CCc1c(C)[nH]c(=O)c(N(C)C)c1Cc1cc(C)ccc1C [Compound 37],6.796,5.729
CCc1c(C)[nH]c(=O)c(N(C)C)c1Cc1cc(F)cc(F)c1 [Compound 38],8.155,7.402
CCc1c(C)[nH]c(=O)c(N)c1Cc1cccc(Cl)c1 [Compound 39],5,4.751
CCc1c(C)[nH]c(=O)c(N(C)C)c1Cc1cccc(Cl)c1 [Compound 40],8.585,7.412
CCc1c(C)[nH]c(=O)c(N)c1Cc1cccc(F)c1 [Compound 41],5.131,4.473
CCc1c(C)[nH]c(=O)c(N(C)C)c1Cc1cccc(F)c1 [Compound 42],8.569,7.18
CCc1c(C)[nH]c(=O)c(N(C)C)c1Cc1cn(C)c2ccccc12 [Compound 43],7.377,6.422
CCc1c(C)[nH]c(=O)c(N(C)C)c1Cc1cccnc1 [Compound 44],7.889,6.355
CCc1c(Cc2cc(C)cc(C)c2)c(N(C)C)c(=O)n(CC)c1C [Compound 45],5.519,4.095
CCc1c(C)[nH]c(=O)c(NC)c1Cc1cc(C)cc(C)c1 [Compound 46],8.119,7.034
CCCN(C)c1c(Cc2cc(C)cc(C)c2)c(CC)c(C)[nH]c1=O [Compound 47],7.767,6.968

SMILES,HIV1 pIC50 strain IIIB (HIV-1 strain IIIB),HIV1 pIC50 strain 103N (HIV-1 strain 103 N)
CCc1c(C)[nH]c(=O)c(N(C)C)c1C(O)c1cc(C)cc(C)c1 (stereo not shown) [Compound 48],8,6.711
CCc1c(C)[nH]c(=O)c(N)c1Cc1ccc(-c2ccccc2)cc1 [Compound 49],<4,<5
CCc1c(C)[nH]c(=O)c(N)c1Cc1cccc(C(F)(F)F)c1 [Compound 50],<5,<5
CCc1c(C)[nH]c(=O)c(N(C)C)c1Cc1ccc(-c2ccccc2)cc1 [Compound 51],5.384,<5
CCc1c(C)[nH]c(=O)c(N)c1Cc1ccc(C(F)(F)F)cc1 [Compound 52],<4,<5
CCc1c(C)[nH]c(=O)c(N(C)C)c1Cc1ccc(C(F)(F)F)cc1 [Compound 53],5.828,<5
CCc1c(C)[nH]c(=O)c(N)c1Cc1ccc(Cl)cc1 [Compound 54],<4,<5
CCc1c(C)[nH]c(=O)c(N(C)CC)c1Cc1cc(C)cc(C)c1 [Compound 56],8.194,7.11
CCc1c(C)[nH]c(=O)c(N(C)C)c1Cc1cccc(C(F)(F)F)c1 [Compound 57],8.086,6.414
CCc1c(C)[nH]c(=O)c(N)c1Cc1c(C)cc(C)cc1C [Compound 58],<4,<5
CCc1c(C)[nH]c(=O)c(N(C)C)c1Cc1c(C)cc(C)cc1C [Compound 59],5.029,<5
CCc1c(C)[nH]c(=O)c(N(C)C)c1Cc1cccc(Br)c1 [Compound 60],8.444,7.001
CCc1c(C)[nH]c(=O)c(N(C)CCCSC)c1Cc1cc(C)cc(C)c1 [Compound 61],7.693,5.922
CCc1c(C)[nH]c(=O)c(N(C)CC(C)C)c1Cc1cc(C)cc(C)c1 [Compound 62],6.604,5.305
CCCc1[nH]c(=O)c(N(C)C)c(Cc2cc(C)cc(C)c2)c1C [Compound 63],7.029,6.334
CCc1c(C)[nH]c(=O)c(N(C)C)c1Cc1ccccc1Cl [Compound 65],8.284,6.405
CCc1c(C)[nH]c(=O)c(N(C)C)c1Cc1nccs1 [Compound 66],7.588,5.72
CCc1c(C)[nH]c(=O)c(N(C)Cc2ccccc2)c1Cc1cc(C)cc(C)c1 [Compound 67],6.804,4.955
